Experimental data from patent US20250223306A1, “TEAD INHIBITORS AND METHODS OF USE” (Sporos BioDiscovery, Inc., priority 2022, published 2025).

What was measured:
Assay type in all cases: cell-based
[1] = test system: NCI-H23 cells; assay: Proliferation and cell viability, CellTiter-Glo 2.0 (CTG) assay; conditions: 144 hrs
[2] = test system: NCI-H226 cells; assay: Proliferation, Cell Titer One assay; conditions: 6 days
Procedure: (§1) Cell proliferation of a TEAD dependent NF2-null mesothelioma cell line, NCI-H226, and a TEAD-non-dependent mesothelioma cell line, NCI-H28 was assayed using two different protocols: • a) CellTiter-Glo 2.0 (Promega #G9243). The effect of the TEAD inhibitors disclosed herein on cell proliferation was determined in TEAD1-genetically dependent cell line NCI-H226 (responder cell line) and TEAD-independent cell lines (NCI-H23, HEK293T), as non-responder, negative control. Cells were seeded in 96-well plates (Thermo Scientific #167008) in growth media (RPMI-1640, Gibco #61870-010) for NCI-H226 and NCI-H23 or DMEM (Gibco #31966-021, HEK293T) with 10% Heat Inactivated Fetal Bovine Serum (Gibco 10500-064) at 800 (NCI-H226 and HEK-293T) or 2000 (NCI-H23) cells per well at 37° C., 5% CO2, humidified incubator; 24 hours later, fresh growth media containing test compound or DMSO vehicle was added and incubated with the cells for 144 hrs. TEAD inhibitor stocks were made at a 1000× fold excess in DMSO, and a dose response test compound dose range of 10,000 to 0.1 nM was used. Each treatment was carried out in triplicate. After 144 hrs of treatment, relative cell viability numbers were determined using the CellTiter-Glo 2.0 assay following the manufacturer's instructions. Test plates and CellTiter-Glo 2.0 reagent were allowed to equilibrate to room temperature. CellTiter-Glo 2.0 reagent was added at 1:1 reagent to media ratio to the 96-well cell plates, plates were placed on a plate shaker for 2 minutes and then incubated at room temperature for a further 10 minutes to allow complete cell lysis to occur. The mix was then transferred to white, 96-well luminometer assay plates (Greiner Bio One #655075). Luminescence was quantified using a CLARIOStar Plus multi-mode plate reader (BMG Labtech) in luminescence detection mode with the recommended settings (ultra-Glo pre-set: emission 545-50 nm with autofocus and enhanced dynamic range on). Relative cell density was expressed as a function of inhibitor concentration, with respect to DMSO-only control wells. Data where plotted using GraphPad Prism and IC50 values for the biological effect were calculated using the EC50 non-linear fit function using a sigmoidal, 4-parameter logistic, least squares fit with no constraints. • b) Cell Titer One (Promega, #G3582). The effect of the TEAD inhibitors disclosed herein on cell proliferation was also determined using the Promega Substrate Cell Titer Aqueous One Solution Reagent. The TEAD inhibitors were evaluated for the effects on cell proliferation responder (H226) and non-responder negative control cancer cell lines (CAMA1, H28), as well as non-transformed normal human cells (HUVEC, NHDF). Dissociated cells were resuspend in media (depending on cell line, either in DMEM, RPMI, or EMEM all with 10% FBS, with gentamicin as an antibiotic). Cells were seeded at 100 μL/well at 750 cells per well in 96-well plates and allowed to settle and attach. After an incubation of 24 hrs (37° C., 5% CO2, humidified incubator), 100 μL of test compound-containing media was added. A dilution series of 2000× concentrated stock of test compounds was prepared in DMSO, for final concentrations from 0.1 to 10,000 nM. After addition of test compound-containing media, cells were incubated for 6 days at 37° C., 5% CO2, humidified incubators). To measure cell density, 20 μL of Promega Substrate Cell Titer 96 Aqueous One Solution Reagent (Promega, #G3582) to each well was added according to the manufacturer's instructions. Plates were incubated at 37° C. for usually 3-8 hrs, to reach in the control cells (without compound) an OD of 1.5 at 490 nm. The OD was measured using Vmax [Molecular Devices] spectrophotometer plate reader. Media only-wells were used as background controls and cell densities normalized to DMSO vehicle control. ECs were taken as the concentration achieving 50% of maximal growth inhibition.

[3] = test system: NCI-H28 cells; assay: Proliferation, Cell Titer One assay; conditions: 6 days
Procedure: as §1

[4] = Homo sapiens, NCI-H23, H23-non-responder cell line

Row | Compound | IC50 [1, 4] | IC50 ([2]; Homo sapiens, NCI-H226, 144 h) | IC50 ([3]; Homo sapiens, NCI-H28, 144 h) | IC50 ([1]; H23-non-responder cell line) | IC50 [2] | IC50 [3]
1 | C[C@H](CO)NC(=O)c1cnc2c(C3=CCC(C(F)(F)F)CC3)cccc2c1 (stereo partly drawn) [Compound 7, N—((R)-1-hydroxypropan-2-yl)-8-(4-(trifluoromethyl)cyclohex-1-en-1-yl)quinoline-3-carboxamide] | > 1000 nM | < 200 nM | > 1000 nM |  |  | 
2 | C[C@H](NC(=O)c1cnc2c(C3=CC[C@@H](C(F)(F)F)CC3)cccc2c1)c1ncco1 (single isomer, unassigned) [Compound 20, N-(1-(oxazol-2-yl)ethyl)-8-(4-(trifluoromethyl)cyclohex-1-en-1-yl)quinoline-3-carboxamide] |  |  |  | > 1000 nM | < 200 nM | > 1000 nM
3 | O=C(NCc1ncco1)c1cnc2c(C3=CCC(C(F)(F)F)CC3)cccc2c1 (stereo not drawn) [Compound 11, N-(oxazol-2-ylmethyl)-8-(4-(trifluoromethyl)cyclohex-1-en-1-yl)quinoline-3-carboxamide] | > 1000 nM | < 200 nM | > 1000 nM |  |  | 
4 | C[C@H](NC(=O)c1cnc2c(C3=CC[C@@H](C(F)(F)F)CC3)cccc2c1)c1ncco1 (single isomer, unassigned) [Compound 19, N-(1-(oxazol-2-yl)ethyl)-8-(4-(trifluoromethyl)cyclohex-1-en-1-yl)quinoline-3-carboxamide] | > 1000 nM | < 200 nM | > 1000 nM |  |  | 
5 | C[C@H](NC(=O)c1cnc2c(C3=CCC(C(F)(F)F)CC3)cccc2c1)c1ccccn1 (stereo partly drawn) [Compound 2, N—((S)-1-(pyridin-2-yl)ethyl)-8-(4-(trifluoromethyl)cyclohex-1-en-1-yl)quinoline-3-carboxamide] | > 1000 nM | < 200 nM | > 1000 nM |  |  | 
